In ChEMBL document CHEMBL1157539, “Thousands of chemical starting points for antimalarial lead identification” (Nature, 2010) one finds XC50 data, which are given here for 86 compounds.

For the experiment, the system named is Plasmodium falciparum. As to the kind of experiment: GSK_TCMDC: Inhibition of Plasmodium falciparum 3D7 in whole erythrocytes, using parasite LDH activity as an index of growth. As to conditions: Plasmodium falciparum, 3D7. Format: functional, organism-based.
Turning to `Cc1cc(N/N=C/c2cccc([N+](=O)[O-])c2)c2cc(F)ccc2n1`, the XC50 was determined as 0.595 µM.

For `Cc1[nH]c(C)c(-c2ccc(Oc3ccc(Cl)cc3)cc2)c(=O)c1Cl`, the XC50 was 0.787 µM.

`CCN(CC)CCNc1ccc(Nc2ccnc3cc4ccccc4cc23)cc1`: the XC50 amounted to 0.197 µM.

The compound `Cc1cc(N[C@@H](Cc2ccccc2)C(=O)NCc2cccs2)nc(NCCc2ccccc2)n1` displayed an XC50 of 0.79 µM.

Compound `COc1cccc(C(=O)NC(c2ccccc2OC)c2cc(Cl)c3cccnc3c2O)c1` (stereo unspecified) gave an XC50 of 1.19 µM.

Compound `Cc1cc(C)c(C(=O)Nc2n[nH]c3nnc(-c4cccc(F)c4F)cc23)c(C)c1` showed an XC50 of 1.07 µM.

On to `O=c1cc(NCCCNCc2cccc(Oc3ccccc3)c2)[nH]c2ccccc12`, for which the XC50 worked out at 0.946 µM.

`CC(Cc1ccc(NC(=O)c2ccc(CNCCCCc3ccccc3)cc2)cc1)NCCc1cccc(Cl)c1` (stereo unspecified) had an XC50 of 0.334 µM.

Compound `O=C(NCc1cccc(Cl)c1)c1ccc(CNC2CCN(Cc3ccccc3)CC2)cc1` returned an XC50 of 0.884 µM.

In the case of `CCOc1ccc2c(c1)C(C)(c1ccc3c(c1)C(C)CC(C)(C)N3)CC(C)(C)N2` (stereo unspecified), the XC50 stood at 0.803 µM.

For `OC(CNc1ccnc(Nc2cccc(Cl)c2)n1)c1cccc(F)c1` (stereo unspecified), the XC50 is 0.973 µM.

Turning to `Cc1ccc2nc3sc(C(=O)NCCCN4CCC(N5CCCCC5)CC4)cc3cc2c1`, the XC50 turned out to be 0.675 µM.

With `C[C@H]1CN(Cc2cccc(-c3cc(CNC(=O)c4cccc(CN5CCN(C/C=C/c6ccccc6)CC5)c4)ccc3F)c2)CCN1`, the XC50 was 0.852 µM.

Turning to `CC1(C)N=C(N)N=C(N)N1OCC1COc2ccccc2O1` (stereo unspecified), the XC50 came to 0.035 µM.

Consider `Cc1cc(Nc2ccccc2)nc(Nc2ccccc2C)n1`, for which the XC50 is 1.04 µM.

In the case of `COc1cc(Cc2cnc(N)nc2N)cc(OCCCC#N)c1OC`, the XC50 came to 1.03 µM.

`Cc1cccc2nc(-c3ccc(-c4cccc(CNCCNC(=O)c5ccnn5C)c4)cc3)[nH]c12` had an XC50 of 0.396 µM.

Compound `CC(=O)Nc1ccc(C(=O)Nc2cccc(-c3ccc(-c4nc5cc(C(F)(F)F)ccc5[nH]4)cc3)c2)cn1` gave an XC50 of 0.231 µM.

On to `CS(=O)(=O)Cc1ccc(Nc2nccc(-c3c(-c4cccc(NC(=O)c5c(F)cccc5F)c4)nn4ncccc34)n2)cc1`, for which the XC50 came out at 0.162 µM.

`COc1cc(-c2nc(-c3ccc([N+](=O)[O-])cc3)c(-c3ccccc3)[nH]2)cc(OC)c1O` displayed an XC50 of 0.83 µM.

Compound `CCC(Nc1noc(-c2c(-c3ccccc3)noc2C)n1)c1ccccc1` (stereo unspecified) came in with an XC50 of 0.973 µM.

For `COc1ccc(-c2ccc([N+](=O)[O-])cc2C(=O)NCC(C)Oc2ccc(C(F)(F)F)cc2)cc1` (stereo unspecified), the XC50 amounted to 0.55 µM.

`CC(C)OC(=O)c1ccccc1S(N)(=O)=O` had an XC50 of 0.674 µM.

`Cc1c(Cn2nc(Cl)c(N3CCNCC3)cc2=O)cccc1NC(=O)Nc1ccc(-c2ccccc2)cc1`: the XC50 was 1.38 µM.

The compound `N#Cc1cccc(Nc2nccc(NCC(O)c3cccc(C(F)(F)F)c3)n2)c1` (stereo unspecified) came in with an XC50 of 0.553 µM.

`c1ccc(CCNCc2cccc(-c3ccc(CNc4ccc5ncccc5c4)cc3)c2)cc1` came in with an XC50 of 0.81 µM.

Compound `CCN(CCCN1CCCCC1)c1cc(C)nc(Nc2ccc(C)c(C)c2)n1` yielded an XC50 of 1.02 µM.

In turn, `O=C(Nc1cccc(F)c1)c1ccc(C(=O)NC2CCN(CC3CCCCC3)CC2)cc1` gave an XC50 of 0.863 µM.

Consider `O=C(NCc1ccc(F)cc1)Nc1cccc(-c2ccc(-c3nc4cc(F)ccc4[nH]3)cc2)c1`, for which the XC50 worked out at 0.226 µM.

For the compound `C/C(=C\C(=O)NC1CC1)c1ccccc1OCc1ccccc1`, the XC50 amounted to 0.504 µM.

Compound `CCc1ccc(NC(=O)c2cccc(CN3CCCN(CC4CCCCC4)CC3)c2)cc1` showed an XC50 of 0.952 µM.

`CCOC(=O)c1ccc(OCCOc2ccccc2)cc1` displayed an XC50 of 0.367 µM.

With `CN(C)Cc1ccc(-c2cccc(NC(=O)c3cccc(Cl)c3)c2)cc1`, the XC50 is 0.693 µM.

On to `O=S(=O)(Nc1cc2c(cc1O)CCN(C1CCC1)CC2)c1ccc(-c2ccc(F)cc2)cc1`, for which the XC50 stood at 0.417 µM.

As for `COc1ccc(-c2cc(C(=O)N[C@@H](CC3CCCCC3)C(=O)NC3CCCc4ccccc43)ccc2O)cc1` (stereo partly specified), the XC50 stood at 0.688 µM.

`COc1ccc2nccc([C@@H](O)CN3CCC(NC(=O)c4cc5c(F)cc(F)cc5[nH]4)CC3)c2c1` yielded an XC50 of 0.245 µM.

`O=C(Nc1cccc(C(F)(F)F)c1)c1cccc2nc(C(F)(F)F)[nH]c12` gave an XC50 of 0.644 µM.

Compound `c1csc(-c2ccc3c(c2)CC(NCc2c[nH]c4cnccc24)C3)c1` (stereo unspecified) showed an XC50 of 0.739 µM.

`Cc1ccc(NC(=O)c2ccc3nccnc3c2)cc1OC1CCN(Cc2ccc(F)cc2)CC1`: the XC50 was determined as 1.01 µM.

As to `COc1ccc(N2CCN(CCCCNC(=O)c3ccc(NC(=O)c4ccc(Cl)cc4)cc3)CC2)c(OC)c1`, the XC50 stood at 0.951 µM.

`COc1ccc(-c2ccc(CN(C)C3CCC(NC(=O)c4cc5ccccc5[nH]4)CC3)cc2)cn1` (stereo unspecified): the XC50 worked out at 0.871 µM.

Compound `COc1ccc2nccc([C@@H](O)CN3CCC(NC(=O)C(c4cc5ccccc5s4)N4CC(C)OC(C)C4)CC3)c2c1` (stereo partly specified) registered an XC50 of 0.981 µM.

For `CC(C)COc1ccc2ccccc2c1CNCCCCCCNCc1c(OCC(C)C)ccc2ccccc12`, the XC50 stood at 0.695 µM.

`O=[N+]([O-])c1cccc(NC(=S)N2CCCN(Cc3ccc(C(F)(F)F)cc3)CC2)c1` came in with an XC50 of 1.2 µM.

The compound `CCCC(C)Nc1nc(C)cc(N[C@@H](Cc2ccccc2)C(=O)NCc2cccc(F)c2)n1` (stereo partly specified) registered an XC50 of 0.882 µM.

Take `Cc1ccc(C2CCN(CCCCNC(=O)c3ccc(NC(=O)c4ccc(Cl)cc4)cc3)CC2)c(C)c1`: the XC50 worked out at 0.842 µM.

For `COc1ccc(C2C(C(=O)Nc3cc(OC)c(OC)c(OC)c3)c3cc(OC)c(OC)cc3C(=O)N2C)cc1` (stereo unspecified), the XC50 is 0.801 µM.

In turn, `O=C(NC1CCN(CCCOc2ccnc3cc(Cl)ccc23)C1)c1ccc(Br)cc1` (stereo unspecified) showed an XC50 of 1.02 µM.

For the compound `CC(Cc1ccc(COc2ccc(CC(CO)NCCc3cccc(Cl)c3)cc2)cc1)NCCc1cccc(Cl)c1` (stereo unspecified), the XC50 turned out to be 0.821 µM.

`CC(C)(CNC(=O)/C=C/c1ccc(C(F)(F)F)cc1)CNc1cc(=O)c2ccccc2[nH]1` yielded an XC50 of 0.912 µM.

Compound `CCCc1cc(=O)oc2cc(OC)c(C(=O)CC(C)C)c(OC)c12` showed an XC50 of 1.01 µM.

Compound `CN(C)CCN(C)Cc1ccc(-c2cccc(NC(=O)c3cccc(C#N)c3)c2)cc1` showed an XC50 of 1.18 µM.

The compound `CN1C2CCC1c1cc(NC(=O)c3cc(-c4ccc(Cl)cc4)cs3)ccc12` (stereo unspecified) gave an XC50 of 1.3 µM.

With `CCCC(C)Nc1nc(C)cc(N[C@@H](CC(C)C)C(=O)NCc2cccc(F)c2)n1` (stereo partly specified), the XC50 stood at 1 µM.

For the compound `O=C(CCc1nc2c(cnn2-c2ccccc2)c(=O)[nH]1)NC1CCSc2ccccc21` (stereo unspecified), the XC50 worked out at 1.06 µM.

For `c1cc(CNCCN2CCNCC2)cc(-c2cccc(-c3nc4ccccc4[nH]3)c2)c1`, the XC50 turned out to be 0.959 µM.

`Fc1ccccc1COc1ccc(Nc2ncnc3ccc(I)cc23)cc1Cl` registered an XC50 of 0.93 µM.

With `C[C@H](Cc1ccc(OCCCCOc2ccc(C[C@@H](C)NC[C@H](O)c3cccc(Cl)c3)cc2)cc1)NC[C@H](O)c1cccc(Cl)c1`, the XC50 stood at 0.756 µM.

`CN(C)CCNC(=O)N1CCCN(c2ncnc3cc(-c4ccc(Cl)cc4)sc23)CC1` yielded an XC50 of 1.02 µM.

Compound `CN1CCN(c2ccnc3ccc(NC(=O)Nc4ccc(-c5ccncc5)c(C#N)c4)cc23)CC1` yielded an XC50 of 0.158 µM.

The compound `Cc1nnsc1C(=O)Nc1cccc(-c2cccc(-c3nc4cc(F)ccc4[nH]3)c2)c1` showed an XC50 of 0.218 µM.

In turn, `COc1ccc2nccc([C@@H](O)CNCCCN(C)CCOc3cc(F)cc(F)c3)c2c1` came in with an XC50 of 0.789 µM.

The compound `O=C(/C=C/c1ccc(F)c(C(F)(F)F)c1)N1CCC(CN2CCC(c3c[nH]c4ccccc34)CC2)CC1` had an XC50 of 0.917 µM.

`CCCCC(CC)NC(=O)[C@H]1CNCCN1C(=O)CCCc1ccccc1` (stereo partly specified) came in with an XC50 of 0.885 µM.

In turn, `COc1ccc(CN2CCN(CCOC(c3ccccc3)c3ccc(Cl)cc3)CC2)c(O)c1` (stereo unspecified) displayed an XC50 of 0.713 µM.

Regarding `CCNc1cc(C(=O)N[C@@H](Cc2ccccc2)[C@H](O)CNC(CC)c2cccc(Cl)c2)cc(N2CCCCS2(=O)=O)c1` (stereo partly specified), the XC50 worked out at 0.0517 µM.

In turn, `O=C(Nc1ccsc1)Nc1cccc(-c2cccc(-c3nc4cc(F)ccc4[nH]3)c2)c1` yielded an XC50 of 0.199 µM.

`CC(C)C[C@H](NC(=O)[C@H](Cc1ccccc1)NC(=O)CCN1C(=O)COc2ccc(C(=O)O)cc21)C(=O)NC(CC1CCCCC1)C(O)CC(=O)NCCCn1ccnc1` (stereo partly specified) had an XC50 of 0.97 µM.

In turn, `Nc1nc(F)nc2nc[nH]c12` showed an XC50 of 0.432 µM.

`CN(Cc1cnc2nc(N)nc(N)c2n1)c1ccc(C(=O)N[C@H](CCC(=O)OC(C)(C)C)C(=O)N[C@@H](CCC(=O)OC(C)(C)C)C(=O)OC(C)(C)C)cc1` displayed an XC50 of 1.02 µM.

With `Cc1cccc2nc(-c3ccc(-c4cccc(NC(=O)C(=O)c5cccn5C)c4)cc3)[nH]c12`, the XC50 was found to be 0.976 µM.

In the case of `CCN1CCN(C(=O)NC(C(=O)N(C)Cc2ccc(-c3ccc(C(F)(F)F)cc3)cc2)c2cccs2)C(=O)C1=O` (stereo unspecified), the XC50 stood at 0.356 µM.

`C=CCc1cc(Cc2cnc(N)nc2N)c2ccc(C)nc2c1OC` showed an XC50 of 0.691 µM.

Consider `CN(C)CCCNc1ccnc2cc(Cl)ccc12`, for which the XC50 is 0.283 µM.

`CCc1nc(N)nc(N)c1-c1ccc2c(c1)CCCC2`: the XC50 was 0.196 µM.

Consider `CC(C)(C)OC(=O)N[C@@H](Cc1ccccc1)C(=O)Nc1cccc(-c2cccc(NC(=O)[C@H](Cc3ccccc3)NC(=O)OC(C)(C)C)c2)c1`, for which the XC50 turned out to be 0.609 µM.

With `Cc1ccc(S(=O)(=O)NC(=N)NC(N)=O)cc1`, the XC50 turned out to be 0.794 µM.

`C[C@H]1CN(Cc2cccc(-c3cc(CNC(=O)c4cccc(CC5CCN(C)CC5)c4)ccc3F)c2)CCN1C` returned an XC50 of 1.09 µM.

`CC1(C)N=C(N)N=C(N)N1OCc1cccc(C#N)c1` yielded an XC50 of 0.00793 µM.

Take `CN(C)CCOc1ccc2nc(-c3cccc(OCc4ccccc4)c3)[nH]c2c1C#N`: the XC50 came out at 0.256 µM.

On to `CN1CC=C(C=Cc2c[nH]c3ccccc23)CC1`, for which the XC50 was determined as 1.34 µM.

`COc1cccc(CNC(=O)NC2CCN(c3ccnc(Nc4ccc(F)cc4)n3)C2)c1` (stereo unspecified) returned an XC50 of 0.805 µM.

`Cc1nc(C)c(-c2ccc(Oc3cc(Cl)cc(Cl)c3)cc2)c(O)c1Cl`: the XC50 was 0.524 µM.

`Cc1cc(NS(=O)(=O)c2cccc(C(C)N3CCC(N4CCCC4)CC3)c2)ccc1C(C)C` (stereo unspecified) had an XC50 of 0.824 µM.

In turn, `c1csc(-c2nc(N3CCCC3)ncc2-c2ccsc2)n1` showed an XC50 of 0.21 µM.

Regarding `Fc1ccc(-c2cc(NCCCn3ccnc3)nc(-c3cccnc3)n2)cc1`, the XC50 worked out at 0.974 µM.
